How the values were obtained:
Type in all cases: in vivo
[1] = tested on: Waterhemp; test: Test C preemergence: waterhemp; conditions: 62 g ai/ha, scale of 0 to 100, 0 is no effect, 100 is complete control
Source text: Seeds of plant species selected from blackgrass (Alopecurus myosuroides), bromegrass, downy (downy bromegrass, Bromus tectorum), foxtail, green (green foxtail, Setaria viridis), ryegrass, Italian (Italian ryegrass, Lolium multiflorum), winter wheat (Triticum aestivum), wild oat (Avena fatua), galium (catchweed bedstraw, Galium aparine), bermudagrass (Cynodon dactylon), surinam grass (Brachiaria decumbens), cocklebur (common cocklebur, Xanthium strumarium), corn (Zea mays), large crabgrass (Digitaria sanguinalis), woolly cupgrass (Eriochloa villosa), foxtail, giant (giant foxtail, Setaria faberii), goosegrass (Eleusine indica), johnsongrass (Sorghum halepense), kochia (Kochia scoparia), lambsquarters (Chenopodium album), morningglory (Ipomoea coccinea), nightshade (eastern black nightshade, Solanum ptycanthum), nutsedge, yellow (yellow nutsedge, Cyperus esculentus), pigweed (Amaranthus retroflexus), ragweed (common ragweed, Ambrosia elation), soybean (Glycine max), common (oilseed) sunflower (Helianthus annuus), Russian thistle (Salsola kali) and velvetleaf (Abutilon theophrasti) were planted into a blend of loam soil and sand and treated preemergence with test chemicals formulated in a non-phytotoxic solvent mixture which included a surfactant.
Treated plants and controls were maintained in a greenhouse for 13 to 15 days, after which time all species were compared to controls and visually evaluated. Plant response ratings, summarized in Table C, are based on a scale of 0 to 100 where 0 is no effect and 100 is complete control. A dash (-) response means no test result.

[2] = tested on: Oilseed Rape; test: Test C preemergence: oilseed rape; conditions: scale 0 (no effect) to 100 (complete control)
[3] = tested on: sandbur (southern sandbur, Cenchrus echinatus); test: Test F pre-/postemergence: sandbur; conditions: Preemergence
How it was run: (§1)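 Seeds were sown in silt loam soil and sprayed preemergence with test chemical in a non-phytotoxic solvent mixture containing surfactant; postemergence treatments went onto plants 2 to 18 cm tall (1- to 4-leaf stage) grown in peat moss/vermiculite medium. After 14 to 21 days in a greenhouse, injury was rated visually against controls, 0 (no effect) to 100 (complete control).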

[4] = tested on: nightshade (eastern black nightshade, Solanum ptycanthum); test: Test F pre-/postemergence: nightshade; conditions: Preemergence
How it was run: as §1

[5] = tested on: beggarticks (hairy beggarticks, Bidens pilosa); test: Test F pre-/postemergence: beggarticks; conditions: Preemergence
How it was run: as §1

[6] = tested on: ryegrass, Italian (Italian ryegrass, Lolium multiflorum); test: Test D pre-/postemergence: ryegrass, Italian
How it was run: (§2)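 Visual ratings from 0 (no effect) to 100 (complete control) were made 14–21 days after treatment, relative to controls. Applications were preemergence to seeds in silt loam, or postemergence to 2–18 cm (1–4 leaf) plants in peat-based medium. Compounds were formulated in a surfactant-containing non-phytotoxic solvent.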

[7] = tested on: barley, spring (spring barley, Hordeum vulgare); test: Test D pre-/postemergence: barley, spring
How it was run: as §2

[8] = 16 g ai/ha, scale 0 to 100, 0 no effect, 100 complete control
[9] = 31 g ai/ha, scale 0 to 100, 0 no effect, 100 complete control
[10] = Postemergence, 31 g ai/ha, scale 0 to 100 (0 no effect, 100 complete control)
[11] = Postemergence, 62 g ai/ha, scale 0 to 100 (0 no effect, 100 complete control)
[12] = Postemergence, 125 g ai/ha, scale 0 to 100, 0 no effect, 100 complete control
[13] = Postemergence, 16 g ai/ha, scale 0 to 100
[14] = Preemergence, 16 g ai/ha, scale 0 to 100, 0 no effect, 100 complete control
[15] = Preemergence, 31 g ai/ha, scale 0 to 100, 0 no effect, 100 complete control
[16] = Preemergence, 62 g ai/ha, scale 0 to 100
[17] = Preemergence, 125 g ai/ha, scale 0 to 100

Question: `CCOCc1nn(-c2ccc(F)cc2)nc1Oc1ccnc(C(F)(F)F)c1` [Compound 163] was tested. Which “Plant response rating, Waterhemp” value [1] did it give?
Answer: 100

Question: `FCc1nn(-c2ccc(F)cc2)nc1Oc1ccnc(C(F)(F)F)c1` [Compound 160] was tested. Which “Plant response rating, Oilseed Rape” value ([2]; 16 g ai/ha) did it give?
Answer: 0

Question: What about the “Plant response rating, Waterhemp” value [1] of the same compound?
Answer: 100

Question: For `CCc1nn(-c2ccc(F)cc2)nc1Cc1ccnc(C(F)(F)F)c1` [Compound 154], which “Plant response rating, Sandbur” value [3, 8] is on record?
Answer: 0

Question: What about the “Plant response rating, Sandbur” value [3, 9] of the same compound?
Answer: 30

Question: And the “Plant response rating, Sandbur” value ([3]; 125 g ai/ha, scale 0 to 100)?
Answer: 98

Question: And the “Plant response rating, Sandbur” value ([3]; 250 g ai/ha, scale 0 to 100)?
Answer: 100

Question: And the “Plant response rating, Nightshade” value [4, 8]?
Answer: 0

Question: What about the “Plant response rating, Nightshade” value [4, 9] of the same compound?
Answer: 10

Question: What about the “Plant response rating, Nightshade” value ([4]; 125 g ai/ha, scale 0 to 100) of the same compound?
Answer: 90

Question: What about the “Plant response rating, Nightshade” value ([4]; 250 g ai/ha, scale 0 to 100) of the same compound?
Answer: 100

Question: And the “Plant response rating, Beggarticks” value [5, 8]?
Answer: 0

Question: And the “Plant response rating, Beggarticks” value [5, 9]?
Answer: 0

Question: What about the “Plant response rating, Beggarticks” value ([5]; 62 g ai/ha, scale 0 to 100) of the same compound?
Answer: 0

Question: What about the “Plant response rating, Beggarticks” value ([5]; 125 g ai/ha, scale 0 to 100) of the same compound?
Answer: 0

Question: What about the “Plant response rating, Beggarticks” value ([5]; 250 g ai/ha, scale 0 to 100) of the same compound?
Answer: 15

Question: What about the “Plant response rating, Waterhemp” value [1] of the same compound?
Answer: 100

Question: With `CCc1nn(-c2ccc(C(F)(F)F)cc2)nc1Cc1ccnc(C(F)(F)F)c1` [Compound 155] as the compound, how does the “Plant response rating: Ryegrass, Italian” value [6, 10] read?
Answer: 15

Question: And the “Plant response rating: Ryegrass, Italian” value [6, 11]?
Answer: 25

Question: What about the “Plant response rating: Ryegrass, Italian” value [6, 12] of the same compound?
Answer: 60

Question: What about the “Plant response rating, Ryegrass, Italian” value [6, 13] of the same compound?
Answer: 5

Question: And the “Plant response rating, Ryegrass, Italian” value [6, 14]?
Answer: 0

Question: And the “Plant response rating, Ryegrass, Italian” value [6, 15]?
Answer: 0

Question: What about the “Plant response rating, Ryegrass, Italian” value [6, 16] of the same compound?
Answer: 10

Question: What about the “Plant response rating, Ryegrass, Italian” value [6, 17] of the same compound?
Answer: 65

Question: What about the “Plant response rating: Barley, Spring” value [7, 10] of the same compound?
Answer: 15

Question: What about the “Plant response rating: Barley, Spring” value [7, 11] of the same compound?
Answer: 25

Question: And the “Plant response rating: Barley, Spring” value [7, 12]?
Answer: 35

Question: What about the “Plant response rating, Barley, Spring” value [7, 13] of the same compound?
Answer: 10

Question: And the “Plant response rating, Barley, Spring” value [7, 14]?
Answer: 0

Question: What about the “Plant response rating, Barley, Spring” value [7, 15] of the same compound?
Answer: 5

Question: And the “Plant response rating, Barley, Spring” value [7, 16]?
Answer: 5

Question: What about the “Plant response rating, Barley, Spring” value [7, 17] of the same compound?
Answer: 10

Question: What about the “Plant response rating, Sandbur” value ([3]; 125 g ai/ha, scale 0 to 100) of the same compound?
Answer: 100

Question: What about the “Plant response rating, Sandbur” value ([3]; 250 g ai/ha, scale 0 to 100) of the same compound?
Answer: 100

Question: What about the “Plant response rating, Nightshade” value ([4]; 125 g ai/ha, scale 0 to 100) of the same compound?
Answer: 100

Question: And the “Plant response rating, Nightshade” value ([4]; 250 g ai/ha, scale 0 to 100)?
Answer: 100

Question: And the “Plant response rating, Beggarticks” value ([5]; 62 g ai/ha, scale 0 to 100)?
Answer: 40

Question: And the “Plant response rating, Beggarticks” value ([5]; 125 g ai/ha, scale 0 to 100)?
Answer: 70

Question: What about the “Plant response rating, Beggarticks” value ([5]; 250 g ai/ha, scale 0 to 100) of the same compound?
Answer: 80

Question: And the “Plant response rating, Waterhemp” value [1]?
Answer: 100

Question: For `CCOc1nn(-c2ccc(Cl)cc2)nc1Cc1ccnc(C(F)(F)F)c1` [Compound 188], which “Plant response rating, Oilseed Rape” value ([2]; 31 g ai/ha) is on record?
Answer: 20

Question: What about the “Plant response rating, Waterhemp” value [1] of the same compound?
Answer: 100

Question: Which results are given for `Cc1nn(-c2ccc(F)c(C(F)(F)F)c2)nc1Cc1ccnc(C(F)(F)F)c1` [Compound 156]?
Answer: Plant response rating: Ryegrass, Italian [6, 10]: 15; Plant response rating: Ryegrass, Italian [6, 11]: 10; Plant response rating: Ryegrass, Italian [6, 12]: 25; Plant response rating, Ryegrass, Italian [6, 13]: 5; Plant response rating, Ryegrass, Italian [6, 14]: 0; Plant response rating, Ryegrass, Italian [6, 15]: 5; Plant response rating, Ryegrass, Italian [6, 16]: 5; Plant response rating, Ryegrass, Italian [6, 17]: 60; Plant response rating: Barley, Spring [7, 10]: 20; Plant response rating: Barley, Spring [7, 11]: 25; Plant response rating: Barley, Spring [7, 12]: 30; Plant response rating, Barley, Spring [7, 13]: 15; Plant response rating, Barley, Spring [7, 14]: 5; Plant response rating, Barley, Spring [7, 15]: 5; Plant response rating, Barley, Spring [7, 16]: 5; Plant response rating, Barley, Spring [7, 17]: 15; Plant response rating, Waterhemp [1]: 100
